For the first data set, the target named is hMCH-1R (Homo sapiens (Human), UniProt Q99705). As to the kind of experiment: MCH-1 receptor binding test (125I-MCH binding to hMCH-1R transfected cell membranes). The following applies: competition with 100 pM 125I-MCH, membranes of CHO/Galpha16 cells stably transfected with hMCH-1R. The method, then: Res Commun. […] After the incubation the reaction is filtered using a cell harvester through 0.5% PEI treated fibreglass filters (GF/B, Unifilter Packard). The membrane-bound radioactivity retained on the filter is then determined after the addition of scintillator substance (Packard Microscint 20) in a measuring device (TopCount of Packard). […] The analysis of the concentration binding curve is carried out on the assumption of one receptor binding site.
Sequence of hMCH-1R (Q99705 whole entry): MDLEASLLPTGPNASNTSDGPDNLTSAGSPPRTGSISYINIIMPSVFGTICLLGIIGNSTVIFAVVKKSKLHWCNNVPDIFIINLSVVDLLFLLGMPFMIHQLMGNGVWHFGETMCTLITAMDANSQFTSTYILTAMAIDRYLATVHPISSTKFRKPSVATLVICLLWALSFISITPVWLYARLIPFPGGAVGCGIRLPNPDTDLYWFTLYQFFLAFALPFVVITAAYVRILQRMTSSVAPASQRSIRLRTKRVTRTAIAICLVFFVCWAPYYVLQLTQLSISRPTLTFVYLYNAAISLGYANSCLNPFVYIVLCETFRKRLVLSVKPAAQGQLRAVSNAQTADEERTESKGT
One may read the IC50 as the midpoint of a concentration-inhibition curve. High values mean weaker potency in that assay, low ones greater potency in that assay. `Cc1cc(CN2CCC(C)(O)C2)ccc1C(=O)Cn1ncc(OCc2ccccc2)cc1=O` (centres unmarked) [Example 5.14, 5-Benzyloxy-2-{2-[4-(3-hydroxy-3-methyl-pyrrolidin-1-ylmethyl)-2-methyl-phenyl]-2-oxo-ethyl}-2H-pyridazin-3-one] yielded an IC50 of 10 nM.
`Cc1cc(CN2CC[C@@H](O)C2)ccc1C(=O)Cn1ccc(OCc2ccc(Cl)cn2)cc1=O` [Example 3.4, (R)-4-(5-Chloro-pyridin-2-ylmethoxy)-1-{2-[4-(3-hydroxy-pyrrolidin-1-ylmethyl)-2-methyl-phenyl]-2-oxo-ethyl}-1H-pyridin-2-one] showed an IC50 of 38 nM. This IC50 lies about 3.8-fold higher than the previous one.
The same measure, in the same setting: under `Cc1cc(CN2CC(O)C2)ccc1C(=O)Cn1ncc(OCc2ccc(Cl)cn2)cc1=O` [Example 7.3] stands 27 nM.
As to `Cc1cc(CN2CCCC2)ccc1C(=O)Cn1ccc(OCc2ccc(Br)cn2)cc1=O` [Example 4.8, 4-(5-Bromo-pyridin-2-ylmethoxy)-1-[2-(2-methyl-4-pyrrolidin-1-ylmethyl-phenyl)-2-oxo-ethyl]-1H-pyridin-2-one], the half-inhibitory concentration (IC50) came out at 17 nM.
On to `Cc1cc(CN2CCNCC2)ccc1C(=O)Cn1ncc(OCc2ccc(Cl)cn2)cc1=O` [Example 7.17, 5-(5-Chloro-pyridin-2-ylmethoxy)-2-[2-(2-methyl-4-piperazin-1-ylmethyl-phenyl)-2-oxo-ethyl]-2H-pyridazin-3-one], for which the IC50 stood at 83 nM.
The same measure, in the same setting: under `Cc1cc(CN2CCC[C@@H](O)C2)ccc1C(=O)Cn1ncc(OCc2ccccc2)cc1=O` [Example 5.1, (R)-5-Benzyloxy-2-{2-[4-(3-hydroxy-piperidin-1-ylmethyl)-2-methyl-phenyl]-2-oxo-ethyl}-2H-pyridazin-3-one] stands 14 nM; under `CCN1CCN(Cc2ccc(C(=O)Cn3ccc(OCc4ccc(Cl)cn4)cc3=O)c(C)c2)CC1` [Example 3.1, 4-(5-Chloro-pyridin-2-ylmethoxy)-1-{2-[4-(4-ethyl-piperazin-1-ylmethyl)-2-methyl-phenyl]-2-oxo-ethyl}-1H-pyridin-2-one], 79 nM.
For `COc1ccc(COc2ccn(CC(=O)c3ccc(CN(C)C)cc3C)c(=O)c2)nc1` [Example 11.2], the IC50 worked out at 57 nM.
For `Cc1cc(CN2CC[C@H](O)C2)ccc1C(=O)Cn1ccc(OCc2ccccc2)cc1=O` [Example 1.11, (S)-4-Benzyloxy-1-{2-[4-(3-hydroxy-pyrrolidin-1-ylmethyl)-2-methyl-phenyl]-2-oxo-ethyl}-1H-pyridin-2-one], the IC50 stood at 30 nM.
`Cc1cc(CN2CCC(CO)CC2)ccc1C(=O)Cn1ncc(OCc2ccccc2)cc1=O` [Example 5.11, 5-Benzyloxy-2-{2-[4-(4-hydroxymethyl-piperidin-1-ylmethyl)-2-methyl-phenyl]-2-oxo-ethyl}-2H-pyridazin-3-one]: the IC50 was 13 nM.
On the same count and under the same terms, under `Cc1cc(CN2CCCC[C@@H]2CO)ccc1C(=O)Cn1ncc(OCc2ccc(Br)cn2)cc1=O` [Example 8.7, (R)-5-(5-Bromo-pyridin-2-ylmethoxy)-2-{2-[4-(2-hydroxymethyl-piperidin-1-ylmethyl)-2-methyl-phenyl]-2-oxo-ethyl}-2H-pyridazin-3-one] stands 20 nM; under `Cc1cc(CN2CCC(O)CC2)ccc1C(=O)Cn1ccc(OCc2ccccc2)cc1=O` [Example 1.3, 4-Benzyloxy-1-{2-[4-(4-hydroxy-piperidin-1-ylmethyl)-2-methyl-phenyl]-2-oxo-ethyl}-1H-pyridin-2-one], 19 nM.
Molecule `Cc1cc(CNC(C)C)ccc1C(=O)Cn1ccc(OCc2ccc(Br)cn2)cc1=O` [Example 4.15, 4-(5-Bromo-pyridin-2-ylmethoxy)-1-{2-[4-(isopropylamino-methyl)-2-methyl-phenyl]-2-oxo-ethyl}-1H-pyridin-2-one] displayed an IC50 of 18 nM.
Same read-out and setting: under `Cc1cc(CN2CCC[C@H](O)C2)ccc1C(=O)Cn1ncc(OCc2ccc(Br)cn2)cc1=O` [Example 8.4] stands 24 nM; under `Cc1cc(CN2CCOCC2)ccc1C(=O)Cn1ccc(OCc2ccccc2)cc1=O` [Example 1.4], 40 nM.
Regarding `Cc1cc(CN2CCC[C@H]2CO)ccc1C(=O)Cn1ncc(OCc2ccc(Br)cn2)cc1=O` [Example 8.11], the IC50 is 21 nM.
For `Cc1cc(CN2CC(O)C2)ccc1C(=O)Cn1ccc(OCc2ccccc2)cc1=O` [Example 1.1, 4-Benzyloxy-1-{2-[4-(3-hydroxy-azetidin-1-ylmethyl)-2-methyl-phenyl]-2-oxo-ethyl}-1H-pyridin-2-one], the IC50 worked out at 20 nM.
The same measure, in the same setting: under `Cc1cc(CN2CC(O)C2)ccc1C(=O)Cn1ccc(OCc2ccc(Cl)cn2)cc1=O` [Example 3.15, 4-(5-Chloro-pyridin-2-ylmethoxy)-1-{2-[4-(3-hydroxy-azetidin-1-ylmethyl)-2-methyl-phenyl]-2-oxo-ethyl}-1H-pyridin-2-one] stands 31 nM.
Still for that read-out and setting: under `Cc1cc(CN2CCC[C@H](O)C2)ccc1C(=O)Cn1ccc(OCc2ccc(Br)cn2)cc1=O` [Example 4.4, (S)-4-(5-Bromo-pyridin-2-ylmethoxy)-1-{2-[4-(3-hydroxy-piperidin-1-ylmethyl)-2-methyl-phenyl]-2-oxo-ethyl}-1H-pyridin-2-one] stands 18 nM.
On the same count and under the same terms, under `Cc1cc(CN2CC[C@H](O)C2)ccc1C(=O)Cn1ncc(OCc2ccc(F)cn2)cc1=O` [Example 6.6] stands 49 nM; under `Cc1cc(CN2CCC(O)CC2)ccc1C(=O)Cn1ncc(OCc2ccc(Cl)cn2)cc1=O` [Example 7.14, 5-(5-Chloro-pyridin-2-ylmethoxy)-2-{2-[4-(4-hydroxy-piperidin-1-ylmethyl)-2-methyl-phenyl]-2-oxo-ethyl}-2H-pyridazin-3-one], 30 nM.
`CCNCc1ccc(C(=O)Cn2ncc(OCc3ccc(Br)cn3)cc2=O)c(C)c1` [Example 8.8, 5-(5-Bromo-pyridin-2-ylmethoxy)-2-[2-(4-ethylaminomethyl-2-methyl-phenyl)-2-oxo-ethyl]-2H-pyridazin-3-one] showed an IC50 of 17 nM.
With `Cc1cc(CN2CC[C@@H](O)C2)ccc1C(=O)Cn1ccc(OCc2ccccc2)cc1=O` [Example 1.14], the IC50 stood at 53 nM. Against the preceding molecule, the IC50 is about 3.1-fold higher.
Consider `Cc1cc(CN2CCCCC2)ccc1C(=O)Cn1ccc(OCc2ccc(Br)cn2)cc1=O` [Example 4.16], for which the IC50 was determined as 12 nM.
On the same count and under the same terms, under `Cc1cc(CN2CCCC[C@@H]2CO)ccc1C(=O)Cn1ncc(OCc2ccc(Cl)cn2)cc1=O` [Example 7.13, (R)-5-(5-Chloro-pyridin-2-ylmethoxy)-2-{2-[4-(2-hydroxymethyl-piperidin-1-ylmethyl)-2-methyl-phenyl]-2-oxo-ethyl}-2H-pyridazin-3-one] stands 35 nM; under `Cc1cc(CN2CCC(CO)CC2)ccc1C(=O)Cn1ccc(OCc2ccc(Cl)cn2)cc1=O` [Example 3.12], 34 nM; under `Cc1cc(CN2CCC(O)CC2)ccc1C(=O)Cn1ncc(OCc2ccc(Br)cn2)cc1=O` [Example 8.9, 5-(5-Bromo-pyridin-2-ylmethoxy)-2-{2-[4-(4-hydroxy-piperidin-1-ylmethyl)-2-methyl-phenyl]-2-oxo-ethyl}-2H-pyridazin-3-one], 18 nM.
For `Cc1cc(CN2CCC[C@H]2CO)ccc1C(=O)Cn1ccc(OCc2ccc(Br)cn2)cc1=O` [Example 4.5, (S)-4-(5-Bromo-pyridin-2-ylmethoxy)-1-{2-[4-(2-hydroxymethyl-pyrrolidin-1-ylmethyl)-2-methyl-phenyl]-2-oxo-ethyl}-1H-pyridin-2-one], the IC50 amounted to 13 nM.
Consider `Cc1cc(CN2CC[C@@H](O)C2)ccc1C(=O)Cn1ccc(OCc2ccc(Br)cn2)cc1=O` [Example 4.9, (R)-4-(5-Bromo-pyridin-2-ylmethoxy)-1-{2-[4-(3-hydroxy-pyrrolidin-1-ylmethyl)-2-methyl-phenyl]-2-oxo-ethyl}-1H-pyridin-2-one], for which the IC50 amounted to 20 nM.
Still for that read-out and setting: under `Cc1cc(CN2CCC(CO)CC2)ccc1C(=O)Cn1ncc(OCc2ccc(Cl)cn2)cc1=O` [Example 7.8] stands 26 nM.
The same measure, in the same setting: under `Cc1cc(CN2CCCC2)ccc1C(=O)Cn1ncc(OCc2ccc(Cl)cn2)cc1=O` [Example 7.15, 5-(5-Chloro-pyridin-2-ylmethoxy)-2-[2-(2-methyl-4-pyrrolidin-1-ylmethyl-phenyl)-2-oxo-ethyl]-2H-pyridazin-3-one] stands 19 nM.
On to `COc1ccc(COc2ccn(CC(=O)c3ccc(CN4CCCC4)cc3C)c(=O)c2)nc1` [Example 11.3], for which the IC50 was found to be 26 nM.

For a further data set, the system named is human hepatocytes. As to the kind of experiment: Metabolic degradation in human hepatocytes (intrinsic clearance). Format: in vitro ADME. The following applies: human hepatocyte suspension, 1 μM test compound, 5% human serum, 6 h. The method, then: Determination of Metabolic Degradation in Human Hepatocytes for Compounds of the Invention
The metabolic degradation of the test compound is determined in a hepatocyte suspension. Hepatocytes (typically cryopreserved) are incubated in an appropriate buffer system (e.g. Dulbecco's modified eagle medium plus 3.5 μg glucagon/500 mL, 2.5 mg insulin/500 mL and 3.75 mg/500 mL hydrocortison) containing 5% human serum.
Following a (typically) 30 min preincubation in an incubator (37° C., 10% CO2), 5 μl of test compound solution (80 μM; from 2 mM in DMSO stock solution diluted 1:25 with medium) are added into 395 μl hepatocyte suspension (cell density in the range 0.25-5 Mio cells/mL, typically 1 Mio cells/mL; final concentration of test compound 1 μM, final DMSO concentration 0.05%). The cells are incubated for six hours (incubator, orbital shaker) and samples (25 μl) are taken at 0, 0.5, 1, 2, 4 and 6 hours. Samples are transferred into acetonitrile and pelleted by centrifugation (5 min). The supernatant is transferred to a new 96-deepwell plate, evaporated under nitrogen and resuspended.
Decline of parent compound is analyzed by HPLC-MS/MS.
CLint is calculated as follows CL_[…]=Dose/AUC=(CO/CD)/(AUD+clast/k)×1000/60. C0: initial concentration in the incubation [μM], CD: cell density of vital cells [10e6 cells/mL], AUD: area under the data [μM×h], clast: concentration of last data point [μM], k: slope of the regression line for parent decline [h−1].
Regarding `CN(C)Cc1ccc(C(=O)Cn2ncc(OCc3ccc(Br)cn3)cc2=O)cc1` [Example 12.2 in WO2009/103478, reference compound], the CLint was 57.6 μL/min/10e6 cells.
In turn, `CN(C)Cc1ccc(C(=O)Cn2ncc(OCc3ccc(F)cn3)cc2=O)cc1` [Example 33.5 in WO2008/22979, reference compound] displayed a CLint of 10.0 μL/min/10e6 cells.
Still for that read-out and setting: under `CN(C)Cc1ccc(C(=O)Cn2ncc(OCc3ccccc3)cc2=O)cc1` [Example 32.7 in WO2008/22979, reference compound] stands 16.8 μL/min/10e6 cells.

These data come from patent US8933079B2, “Pyridone and pyridazinone derivatives as anti-obesity agents” (Boehringer Ingelheim International GmbH, priority 2012, dated 2015).
